Source: patent US20250145665A1, “MACROCYCLIC PEPTIDES USEFUL AS MODULATORS OF TNF ALPHA” (Bristol-Myers Squibb Company, priority 2023, published 2025)
Starred links: 1 amine or outer side, 2 acyl side, 3 side chain; linkers in the order of their positions; H or OH if unused. Positions of bridges follow the written chain, without caps; N, C: chain ends. Non-standard residues stand in square brackets, D forms with d. Residues, ends and D or L forms follow the SMILES beside them. ξ: configuration not given here. *: point of attachment. Bip(4'-NHCO-C6H4-3-CH2COOH) = N[C@@H](Cc1ccc(-c2ccc(NC(=O)c3cccc(CC(=O)O)c3)cc2)cc1)C(=O)O; X38 = O=C(O)C1CCC(C(=O)Nc2ccc(-c3ccc(C[C@H](N[*:1])C(=O)[*:2])cc3)cc2)CC1; X5 = Cn1nc(C(=O)Nc2ccc(-c3ccc(C[C@H](N[*:1])C(=O)[*:2])cc3)cc2)c2ccccc21; Bip(4'-NH) = O=C([C@H](Cc1ccc(-c2ccc(N[*:3])cc2)cc1)N[*:1])[*:2]; Bip(4'-COOH) = N[C@@H](Cc1ccc(-c2ccc(C(=O)O)cc2)cc1)C(=O)O; Pro(cis-4-Ph) = O=C(O)[C@@H]1C[C@H](c2ccccc2)CN1; Ala(imidazol-2-yl) = N[C@@H](Cc1ncc[nH]1)C(=O)O; dArg(ω-Bn) = N=C(NCCC[C@@H](N)C(=O)O)NCc1ccccc1; Ala(morpholin-4-yl) = N[C@@H](CN1CCOCC1)C(=O)O; Benzoyl(3-OCH2COOH) = O=C(O)COc1cccc(C(=O)*)c1; Bip = N[C@@H](Cc1ccc(-c2ccccc2)cc1)C(=O)O; X13 = O=C([C@H](Cc1ccc[nH]1)N[*:1])[*:2]; X81 = N[C@@H](Cc1ccc(OCC(=O)O)cc1)C(=O)*; Cha = N[C@@H](CC1CCCCC1)C(=O)O; Tle = CC(C)(C)[C@H](N)C(=O)O; ξP = O=C(O)C1CCCN1; Sar = CNCC(=O)O

Biological target: TNFα (Homo sapiens, UniProt P01375)
Sequence (P01375 77-233 limits assumed): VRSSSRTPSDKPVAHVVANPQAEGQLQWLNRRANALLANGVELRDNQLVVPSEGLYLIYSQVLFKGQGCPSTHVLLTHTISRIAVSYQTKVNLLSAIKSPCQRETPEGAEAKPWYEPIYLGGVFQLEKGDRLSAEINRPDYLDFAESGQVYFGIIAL
Assay: TNF-Induced HEK-Blue Assay
Format: cell-based
Details: HEK-Blue-CD40L cells, NF-kB-driven secreted alkaline phosphatase reporter; TNFα 0.5 ng/ml; 18 h; read-out: TNF induced HEK-Blue assay IC50 value

Row | SMILES | IC50
1 | CC(C)C[C@@H]1NC(=O)[C@H](CCCNC(=N)N)NC(=O)[C@H](C(C)C)NC(=O)[C@@H]2CCCN2C(=O)[C@H](C(C)C)NC(=O)[C@@H](CCCNC(=N)NCc2ccccc2)NC(=O)[C@H](CC(=O)O)NC(=O)[C@@H]2CCCN2C(=O)CN(C)C(=O)[C@H](Cc2ccc(-c3ccc(NC(=O)c4nn(C)c5ccccc45)cc3)cc2)NC(=O)[C@H](Cc2ccc(-c3ccccc3)cc2)NC(=O)[C@H](CN2CCOCC2)NC(=O)CSC[C@@H](C(=O)NCC(N)=O)NC1=O [Example 471] ({CH2CO}-[Ala(morpholin-4-yl)][Bip][X5][Sar]PD[dArg(ω-Bn)]VPVRLCG-NH2; thioether N-13) | < 50 nM
2 | CC[C@H](C)[C@@H]1NC(=O)C2CCCN2C(=O)[C@H]([C@@H](C)CC)NC(=O)[C@@H](CCCNC(=N)N)NC(=O)[C@H](CC(=O)O)NC(=O)[C@H](Cc2ccccc2)NC(=O)CN(C)C(=O)[C@H](Cc2ccc(-c3ccc(NC(=O)[C@@H](N)Cc4ccc(OCC(=O)O)cc4)cc3)cc2)NC(=O)[C@H](Cc2ccc(-c3ccc(C(=O)O)cc3)cc2)NC(=O)[C@H](C(C)(C)C)NC(=O)CSC[C@@H](C(=O)NCC(N)=O)NC(=O)[C@H](CC(C)C)NC(=O)[C@H](Cc2ncc[nH]2)NC1=O (some centres unmarked) [Example 421] ({CH2CO}-[Tle][Bip(4'-COOH)][Bip(4'-NH)](X81)[Sar]FD[dR]I[ξP]I[Ala(imidazol-2-yl)]LCG-NH2; thioether N-13) | 50 to 200 nM
3 | CC(C)C[C@@H]1NC(=O)[C@H](Cc2ccc[nH]2)NC(=O)[C@H](C(C)C)NC(=O)[C@@H]2CCCN2C(=O)[C@H](C(C)C)NC(=O)[C@@H](CCCNC(=N)N)NC(=O)[C@H](CC(=O)O)NC(=O)[C@H](Cc2cnc[nH]2)NC(=O)CN(C)C(=O)[C@H](Cc2ccc(-c3ccc(NC(=O)c4cccc(CC(=O)O)c4)cc3)cc2)NC(=O)[C@H](Cc2ccc(-c3ccc(C(=O)O)cc3)cc2)NC(=O)[C@H](C(C)(C)C)NC(=O)CSC[C@@H](C(=O)NCC(N)=O)NC1=O [Example 597] ({CH2CO}-[Tle][Bip(4'-COOH)][Bip(4'-NHCO-C6H4-3-CH2COOH)][Sar]HD[dR]VPV[X13]LCG-NH2; thioether N-13) | < 50 nM
4 | CC(C)C[C@@H]1NC(=O)[C@H](Cc2ccc(O)cc2)NC(=O)[C@H](C(C)C)NC(=O)[C@@H]2CCCN2C(=O)[C@H](C(C)C)NC(=O)[C@@H](CCCNC(=N)N)NC(=O)[C@H](CC(=O)O)NC(=O)[C@@H]2CCCN2C(=O)CN(C)C(=O)[C@H](Cc2ccc(-c3ccc(NC(=O)c4nn(C)c5ccccc45)cc3)cc2)NC(=O)[C@H](Cc2ccc(-c3ccc(C(=O)O)cc3)cc2)NC(=O)[C@H](CC2CCCCC2)NC(=O)CSC[C@@H](C(=O)NCC(N)=O)NC1=O [Example 340] ({CH2CO}-[Cha][Bip(4'-COOH)][X5][Sar]PD[dR]VPVYLCG-NH2; thioether N-13) | < 50 nM
5 | CC[C@H](C)[C@@H]1NC(=O)[C@@H](CCCNC(=N)N)NC(=O)[C@H](CC(=O)O)NC(=O)[C@H](Cc2cnc[nH]2)NC(=O)CN(C)C(=O)[C@H](Cc2ccc(-c3ccc(NC(=O)C4CCC(C(=O)O)CC4)cc3)cc2)NC(=O)[C@H](Cc2ccc(-c3ccccc3)cc2)NC(=O)[C@H](CC2CCCCC2)NC(=O)CSC[C@@H](C(=O)NCC(N)=O)NC(=O)[C@H](CC(C)C)NC(=O)[C@H](Cc2cnc[nH]2)NC(=O)[C@H](C(C)C)NC(=O)[C@@H]2CCCN2C1=O (some centres unmarked) [Example 316] ({CH2CO}-[Cha][Bip][X38][Sar]HD[dR]IPVHLCG-NH2; thioether N-13) | 50 to 200 nM

Now from value to compound:

Row | IC50 | SMILES
6 | 50 to 200 nM | CC(C)C[C@@H]1NC(=O)[C@H](Cc2ccc(O)cc2)NC(=O)[C@H](C(C)C)NC(=O)[C@@H]2CCCN2C(=O)[C@H](C(C)C)NC(=O)[C@H](CCCNC(=N)N)NC(=O)[C@H](CC(=O)O)NC(=O)[C@@H]2C[C@H](c3ccccc3)CN2C(=O)CN(C)C(=O)[C@H](Cc2ccc(-c3ccccc3)cc2)NC(=O)[C@H](Cc2ccc(-c3ccccc3)cc2)NC(=O)[C@H](CN2CCOCC2)NC(=O)CSC[C@@H](C(=O)NCC(N)=O)NC1=O [Example 94] ({CH2CO}-[Ala(morpholin-4-yl)][Bip][Bip][Sar][Pro(cis-4-Ph)]DRVPVYLCG-NH2; thioether N-13)
7 | 200 to 2000 nM | CC(C)C[C@@H]1NC(=O)[C@H](Cc2ccc(O)cc2)NC(=O)[C@H](C(C)C)NC(=O)CNC(=O)[C@H](C(C)C)NC(=O)[C@H](CCCNC(=N)N)NC(=O)[C@H](CC(=O)O)NC(=O)[C@@H]2CCCN2C(=O)CN(C)C(=O)[C@H](Cc2ccc(-c3ccccc3)cc2)NC(=O)[C@H](Cc2ccc(-c3ccccc3)cc2)NC(=O)[C@H](CN2CCOCC2)NC(=O)CSC[C@@H](C(=O)NCC(N)=O)NC1=O [Example 139] ({CH2CO}-[Ala(morpholin-4-yl)][Bip][Bip][Sar]PDRVGVYLCG-NH2; thioether N-13)
8 | < 50 nM | CC[C@H](C)[C@@H]1NC(=O)[C@@H](CCCNC(=N)N)NC(=O)[C@H](CC(=O)O)NC(=O)[C@H](Cc2cnc[nH]2)NC(=O)CN(C)C(=O)[C@H](Cc2ccc(-c3ccc(NC(=O)c4cccc(OCC(=O)O)c4)cc3)cc2)NC(=O)[C@H](Cc2ccc(-c3ccccc3)cc2)NC(=O)[C@H](CC2CCCCC2)NC(=O)CSC[C@@H](C(=O)NCC(N)=O)NC(=O)[C@H](CC(C)C)NC(=O)[C@H](Cc2cnc[nH]2)NC(=O)[C@H](C(C)C)NC(=O)[C@@H]2CCCN2C1=O [Example 308] ({CH2CO}-[Cha][Bip][Bip(4'-NH)](Benzoyl(3-OCH2COOH))[Sar]HD[dR]IPVHLCG-NH2; thioether N-13)
